Test results taken from publication PMC9159852, “Synthesis, Structure, and Biologic Activity of Some Copper, Nickel, Cobalt, and Zinc Complexes with 2-Formylpyridine N^4-Allylthiosemicarbazone” (Bioinorganic Chemistry and Applications, 2022).
Values after ≈ are worked out from the molar mass of the structure shown.

Legend:
[1] = test system: Escherichia coli (ATCC 25922); design: method as in PMID 25708540; conditions: E. coli (G-), reference drug; cited from earlier work
[2] = test system: Staphylococcus aureus (ATCC 25923); design: method as in PMID 25708540; conditions: S. aureus (G+), reference drug; cited from earlier work
[3] = test system: Candida albicans (ATCC 10231); design: method as in PMID 25708540; conditions: C. albicans, reference drug; cited from earlier work
[4] = design: method as in doi:10.1134/s1070363221010114; conditions: standard antioxidant; read-out: IC50 toward ABTS•+ radical cation; cited from earlier work

## C=CCNC(=S)NN=Cc1cccnc1
other
  melting point: 180 to 182 °C

## C=CCNC(=S)NN=Cc1ccncc1
other
  melting point: 163 to 165 °C

## NC(=O)N/N=C/c1ccc([N+](=O)[O-])o1 [Furacillinum, furacillinum]
[1]
  MBC: 37.5 µg/mL (≈ 189 µM)
  MIC: 18.5 µg/mL (≈ 93.4 µM)
[2]
  MBC: 9.3 µg/mL (≈ 46.9 µM)
  MIC: 9.3 µg/mL (≈ 46.9 µM)

## C[C@@H]1[C@H](O)[C@@H](C)/C=C/C=C/CC/C=C/C=C/C=C/C=C/C(O[C@H]2O[C@H](C)[C@@H](O)[C@H](N)[C@@H]2O)CC2O[C@](O)(CC(O)C(O)CCC(O)CC(O)CC(O)CC(=O)O[C@H]1C)CC(O)C2C(=O)O (stereo partly drawn) [Nystatin, nystatin]
[3]
  MFC: 80 µg/mL (≈ 86.4 µM)
  MIC: 80 µg/mL (≈ 86.4 µM)

## Cc1c(C)c2c(c(C)c1O)CCC(C)(C(=O)O)O2 (stereo not drawn) [Trolox, trolox]
[4]
  IC50: 33 ± 0.7 µM
